The text below walks through data of US12139472B2, “Inhibitors of advanced glycation end products” (priority 2019, dated 2024).

Data set [1] in a line: Preparation of dosing solutions in 0.5% methyl cellulose and 0.1% Tween 20 in water. In kind it is physicochemical. To be noted: 0.5% methyl cellulose. On the procedure: Compound 5 (PTG-630 free base) and Compound 19 (PTG-630 HCl salt) solutions were prepared in 0.5% methyl cellulose and 0.1% Tween 20 in water for administration to animals by oral gavage (PO).
Compound 5 was administered at 10 mg/kg and 100 mg/kg. […] The solution was vortexed vigorously for minutes and then sonicated in a water bath for 5 min. The solution remained as a thick creamy yellowish suspension at pH 8. The solution for the 10 mg/kg free base dose (2 mg/ml solution) was easier to prepare. […] The final solution that was administered was a clear, light yellowish solution with few small particulates in suspension.
Compound 19 was administered at 10 mg/kg. […] The solution (2 mg/ml) was clear yellowish (although lighter than the Compound 5 solution at 2 mg/ml) with no particulates in suspension. The pH decreased to 3.

Another data set addresses T1, CYP1A (Homo sapiens, UniProt P05177).
T1 construct: Two studies were conducted in human liver microsomes (HLM); tissue Eurofins G232 panel; host or cells: human liver microsomes
T1 sequence (P05177 1-516): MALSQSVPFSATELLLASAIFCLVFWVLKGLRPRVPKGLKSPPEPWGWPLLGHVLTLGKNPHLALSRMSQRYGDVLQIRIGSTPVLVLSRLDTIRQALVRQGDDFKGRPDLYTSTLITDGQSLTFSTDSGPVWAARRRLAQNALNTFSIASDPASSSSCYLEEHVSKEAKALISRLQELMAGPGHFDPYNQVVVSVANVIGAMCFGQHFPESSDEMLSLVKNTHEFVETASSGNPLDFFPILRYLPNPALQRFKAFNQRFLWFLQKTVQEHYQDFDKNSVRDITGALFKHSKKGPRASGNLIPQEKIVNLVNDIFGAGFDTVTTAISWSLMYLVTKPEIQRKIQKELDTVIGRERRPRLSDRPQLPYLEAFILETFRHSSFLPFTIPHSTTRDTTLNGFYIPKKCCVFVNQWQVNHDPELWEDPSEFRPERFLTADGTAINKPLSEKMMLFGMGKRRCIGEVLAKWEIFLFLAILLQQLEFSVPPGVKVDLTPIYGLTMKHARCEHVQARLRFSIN
In words: CYP1A inhibition (HLM) phenacetin. In kind it is in vitro ADME. How it is done:
(§1) Compound 5 (PTG-630 free base) and 7 additional compounds for CYP3A P450 inhibition.
(§2) Two studies were conducted in human liver microsomes (HLM). Lead candidate PTG-630 was tested using the Eurofins G232 panel (Drug Metab Dispos. 2001 January; 29(1):23-9), where inhibition was measured against seven CYP enzymes; CYP3A4 was tested using two different substrates, midazolam and testosterone. In a second study, inhibition of CYP3A4 (midazolam substrate only) was compared for 8 compounds of interest. The test protocol involved one-point measurements in duplicate, where inhibition was measured at a fixed 10 μM concentration of candidate inhibitors. In all cases, the substrate for each CYP enzyme was at a concentration equal to its specific Km value that was independently obtained from an 8-point dose-response study. Based on the observed value for percent inhibition for each test compound, we calculated of an IC50 assuming a competitive mode of inhibition. If percent inhibition for an inhibitor at a concentration of [I] is denoted by P, then: IC50=[I]*(100−P)/P In the single-point assay, [I] is 10 μM. If measured inhibition is 10%, then IC50=10*(100-10)/10=90 μM. […] As discussed in Lin et al. (J Pharm Sci. 2007 September; 96(9):2485-93; doi: 10.1002/jps.20884), CYP inhibition is broadly interpreted as being “potent” if IC50<1 μM, “moderate” if 1 μM<IC50<10 μM, and “weak” if IC50>10 μM.

A further data set concerns the target T2, CYP2B6 (Homo sapiens, UniProt P20813).
T2 construct: Two studies were conducted in human liver microsomes (HLM); tissue Eurofins G232 panel; host or cells: human liver microsomes
T2 sequence (P20813 1-491): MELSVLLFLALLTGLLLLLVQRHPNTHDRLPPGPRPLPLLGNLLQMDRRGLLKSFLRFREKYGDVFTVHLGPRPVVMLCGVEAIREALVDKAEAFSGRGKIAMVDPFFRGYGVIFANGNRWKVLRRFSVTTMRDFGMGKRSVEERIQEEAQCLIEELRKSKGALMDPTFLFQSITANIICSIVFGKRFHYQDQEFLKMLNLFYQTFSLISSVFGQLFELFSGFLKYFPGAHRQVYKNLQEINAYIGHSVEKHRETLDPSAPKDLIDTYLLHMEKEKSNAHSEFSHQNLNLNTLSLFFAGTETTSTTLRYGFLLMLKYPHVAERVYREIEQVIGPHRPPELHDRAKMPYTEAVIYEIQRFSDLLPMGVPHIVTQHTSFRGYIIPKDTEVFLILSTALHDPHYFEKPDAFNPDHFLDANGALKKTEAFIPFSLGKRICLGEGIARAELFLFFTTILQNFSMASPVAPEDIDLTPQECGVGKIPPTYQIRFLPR
In kind it is in vitro ADME. To be noted: microsomes. How it is done:
as §1, §2

The target in a further data set is T3, CYP2C8 (Homo sapiens, UniProt P10632).
T3 construct: Two studies were conducted in human liver microsomes (HLM); tissue Eurofins G232 panel; host or cells: human liver microsomes
T3 sequence (P10632 1-490): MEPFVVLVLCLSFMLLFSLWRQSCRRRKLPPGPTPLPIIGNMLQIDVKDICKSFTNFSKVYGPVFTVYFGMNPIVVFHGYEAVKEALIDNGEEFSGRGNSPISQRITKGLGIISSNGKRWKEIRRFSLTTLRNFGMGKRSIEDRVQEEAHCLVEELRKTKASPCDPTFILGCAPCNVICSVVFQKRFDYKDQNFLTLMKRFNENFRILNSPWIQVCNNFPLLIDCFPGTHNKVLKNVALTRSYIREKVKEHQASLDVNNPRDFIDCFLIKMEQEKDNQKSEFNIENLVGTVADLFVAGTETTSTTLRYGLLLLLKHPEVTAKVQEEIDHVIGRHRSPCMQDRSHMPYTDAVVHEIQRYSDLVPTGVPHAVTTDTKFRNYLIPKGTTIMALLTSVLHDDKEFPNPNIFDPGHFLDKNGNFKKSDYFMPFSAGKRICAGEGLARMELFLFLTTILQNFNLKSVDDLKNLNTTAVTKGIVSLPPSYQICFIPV
In kind it is in vitro ADME. Particulars: microsomes. On the procedure: as §1, §2

A further data set deals with T4, CYP2C19 (Homo sapiens, UniProt P33261).
T4 construct: Two studies were conducted in human liver microsomes (HLM); tissue Eurofins G232 panel; host or cells: human liver microsomes
T4 sequence (P33261 whole entry): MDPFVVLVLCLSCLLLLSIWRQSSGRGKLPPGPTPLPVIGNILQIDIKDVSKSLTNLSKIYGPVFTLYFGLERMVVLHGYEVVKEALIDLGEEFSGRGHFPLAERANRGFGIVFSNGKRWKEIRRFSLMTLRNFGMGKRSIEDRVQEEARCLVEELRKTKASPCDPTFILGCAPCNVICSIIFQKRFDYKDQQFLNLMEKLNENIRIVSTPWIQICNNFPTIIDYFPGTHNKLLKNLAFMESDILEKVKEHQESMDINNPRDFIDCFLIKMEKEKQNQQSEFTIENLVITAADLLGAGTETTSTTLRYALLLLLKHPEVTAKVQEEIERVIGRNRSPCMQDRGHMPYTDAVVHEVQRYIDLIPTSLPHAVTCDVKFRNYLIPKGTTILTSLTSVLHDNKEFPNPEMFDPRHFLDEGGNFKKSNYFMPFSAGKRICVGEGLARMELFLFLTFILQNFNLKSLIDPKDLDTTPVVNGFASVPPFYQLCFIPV
Briefly: CYP2C19 inhibition (HLM), omeprazole. In kind it is in vitro ADME. How it is done: as §1, §2

Another data set deals with T5, CYP2D6 (Homo sapiens, UniProt P10635).
T5 construct: Two studies were conducted in human liver microsomes (HLM); tissue Eurofins G232 panel; host or cells: human liver microsomes
T5 sequence (P10635 whole entry): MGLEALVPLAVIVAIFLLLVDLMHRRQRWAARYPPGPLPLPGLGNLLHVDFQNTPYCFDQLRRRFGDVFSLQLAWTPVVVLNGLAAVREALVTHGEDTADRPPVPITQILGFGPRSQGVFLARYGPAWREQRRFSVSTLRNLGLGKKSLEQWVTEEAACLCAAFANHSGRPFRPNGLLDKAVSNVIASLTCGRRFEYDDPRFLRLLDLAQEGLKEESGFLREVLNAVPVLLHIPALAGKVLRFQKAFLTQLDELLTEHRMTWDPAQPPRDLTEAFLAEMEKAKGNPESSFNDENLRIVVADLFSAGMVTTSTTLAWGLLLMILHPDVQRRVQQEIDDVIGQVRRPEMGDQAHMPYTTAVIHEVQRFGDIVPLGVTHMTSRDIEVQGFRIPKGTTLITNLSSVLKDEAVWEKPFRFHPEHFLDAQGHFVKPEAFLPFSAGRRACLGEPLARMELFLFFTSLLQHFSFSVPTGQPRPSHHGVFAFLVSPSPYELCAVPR
Briefly: CYP2D6 inhibition (HLM), dextromethorphan. In kind it is in vitro ADME. On the procedure: as §1, §2

One may read the IC50 as the concentration at which inhibition is half-maximal.

As to `Cc1ncc(CN2CCOCC2)c(-c2ncc[nH]2)c1O` [PTG-630], the results for the dissolution in vehicle entry in data set [1] (2 mg/ml solution (10 mg/kg dose)) and in data set [1] (20 mg/ml solution (100 mg/kg dose)) were “few small particles remained” and “difficult to dissolve”, respectively. The IC50 on CYP1A (phenacetin, from one-point % inhibition at 10 μM, IC50=[I]*(100−P)/P, read-out: Estimated IC50) was 52.1 µM; on CYP2B6, 213 µM; at CYP2C8 it was 37 µM; at CYP2C19 (omeprazole, from one-point % inhibition at 10 μM, IC50=[I]*(100−P)/P, read-out: Estimated IC50), 26.4 µM. Moreover, the P % inhib on CYP1A (substrate phenacetin at Km, Inhib Conc. 1.0E−05 M) is recorded as 16.1%; on CYP2B6, 4.5%; at CYP2C8 it was 21.3%; on CYP2C19 (substrate omeprazole at Km, Inhib Conc. 1.0E−05 M), 27.5%; at CYP2D6 (substrate dextromethorphan at Km, Inhib Conc. 1.0E−05 M), −0.83%. Also, the “Estimated IC50” value on CYP2D6 (dextromethorphan, from one-point % inhibition at 10 μM, IC50=[I]*(100−P)/P) was “— None”.
